According to patent US11149277B2, “Method of producing enriched exosomes” (National Health Research Institutes, priority 2016, dated 2021):

Key:
NAMECs = assay: RT2 Profiler PCR arrays of signaling pathway target genes; assay type: cell-based, human; conditions: 48-hour treatment
Procedure: The percentages of the target genes which, relative to NAMEC control cells, were inhibited, unchanged, or activated in GW627368X-treated NAMECs are presented in the plot.
To evaluate whether there is selective release of components of alternative signaling pathways, the activation and suppression of signaling pathways in GW-treated NAMECs were analyzed using RT2 Profiler PCR arrays. […] The decrease of p-Akt in GW-treated NAMECs and the enrichment of p-Akt in GW induced exosomes was reflected in inactivation of PI3K/Akt-signaling. Thus, EP4 antagonists are likely to interfere with the Akt-dependent signaling pathway by decreasing cellular p-Akt via exosome release.

[1] = tested on: mesenchymal stem cells (MSCs); assay: EV/exosome release from mesenchymal stem cells; assay type: cell-based; conditions: GW for 8 days
Excerpt: FIG. 10 includes blots and a graph. (A) is a graph showing vesicle number analysis of GW-treated mesenchymal stem cells (MSCs) P4 fractions. The CM-P4 GW-treated MSCs were collected and subjected to NanoSight Nanoparticle Tracking Analysis (NTA). Quantification of EV/exosome release is shown as the ratio of [vesicle number]/[cell number]. Data are means±SEM (n=3). ***P≤0.001. (B) is a set of blots showing the protein contents measured in the EV/exosome fraction released by MSCs treated with vehicle DMSO (MSC) or EP4 antagonists (MSCGW). The culture media (D1-4: conditioned medium from day 1 to day 4; D5-8: conditioned medium from day 5 to day 8) were collected from MSCs treated with vehicle (MSC), or GW (MSCGW) for 8 days. (C) is a set of blots showing the protein contents measured in the EV/exosome fraction released by neural stem cells (NSCs) treated with vehicle DMSO or EP4 antagonists. […]
(A) Vesicle number of GW-treated MSC P4 fractions was analyzed. […] (B) Proteins were measured in the EV/exosome fraction released by MSCs treated with vehicle DMSO, EP4 antagonists (GW), or EP4 agonist PGE2. […] (C) Cytokines were measured in the EV/exosome fraction released by MSCs treated with DMSO (MSC) or EP4 antagonist (MSCGW). […] EV/exosome cytokines released by the same number of MSCs were measured using cytokine arrays (C) and Bio-plex (D; IL-10). […]

NAMEC-R cells = assay: NTA of EV release from Ras-transformed NAMEC-R cells; assay type: cell-based; conditions: CM-P4, 4 days; GW 1 μg/ml; SQ 120 and 240 nM
Procedure: Vesicles in the P4 fractions were counted using NTA. Data are means±SEM (n=6). ***P≤0.001; (B) The Alix, TSG101, CD63, CD81 and GAPDH exosome markers were measured in the CM-P4 fractions of NAMEC-R cells treated with vehicle (Crl), GW627368X (GW, 1 μg/ml), SQ 29,548 (SQ120/SQ240; 120 nM and 240 nM); (C) The mesenchymal marker N-cadherin, CSC markers and exosome markers were analyzed in the conditioned medium P4 fraction derived from equal numbers of vehicle-treated NAMEC-R cells (Crl), GW-treated NAMEC-R cells (GW, 1 μg/ml GW627368X for 4 days) and SQ 29,548-treated NAMEC-R cells (SQ120/SQ240; 120 nM and 240 nM for 4 days). The longer GAPDH(L) and CD81(L) exposures show the low, but detectable, presence of GAPDH and CD81 in the conditioned medium P4 fraction of vehicle-treated NAMEC-R cells.
We further investigated whether EP4 antagonism and TP receptor antagonism (as GW has partial affinity to the human TP receptor) affected EV release from transformed mammary epithelial stem cells. Four-day conditioned media of vehicle, GW-, or SQ (a TP antagonist)-treated Ras-transformed NAMEC mammary stem cells (NAMEC-R) were collected and subjected to differential ultracentrifugation to isolate EVs released by the cells. The numbers of vesicles in CM-P4 fractions were determined using NTA (FIG. 20, A). EP4 antagonism elicited release of ˜5000 vesicles per NAMEC-R cell. […]

neural stem cells (NSCs) = assay: EV/exosome markers and SOX2 in neural stem cells; assay type: cell-based; conditions: GW for 4 days
Excerpt: FIG. 10 includes blots and a graph. (A) is a graph showing vesicle number analysis of GW-treated mesenchymal stem cells (MSCs) P4 fractions. The CM-P4 GW-treated MSCs were collected and subjected to NanoSight Nanoparticle Tracking Analysis (NTA). Quantification of EV/exosome release is shown as the ratio of [vesicle number]/[cell number]. Data are means±SEM (n=3). ***P≤0.001. (B) is a set of blots showing the protein contents measured in the EV/exosome fraction released by MSCs treated with vehicle DMSO (MSC) or EP4 antagonists (MSCGW). The culture media (D1-4: conditioned medium from day 1 to day 4; D5-8: conditioned medium from day 5 to day 8) were collected from MSCs treated with vehicle (MSC), or GW (MSCGW) for 8 days. (C) is a set of blots showing the protein contents measured in the EV/exosome fraction released by neural stem cells (NSCs) treated with vehicle DMSO or EP4 antagonists. The culture media were collected from […] treated with DMSO or GW for 4 days. EV/exosome protein released by the same number of NSCs was loaded in the Western blotting.
Isolated neural stem cells (NSCs) were cultured in NSC medium (225 ml low glucose DMEM, 225 ml F12, 50 ml vesicle-depleted Bovine serum) with or without an EP4 antagonist (GW at 20-30 μg/ml) for 4 days. The culture medium was supplied with 10-15 μg/ml of GW on the third day of the cultural period. […]

CCOc1c2c(c(OCC)c3ccccc13)C(=O)N(c1ccc(CC(=O)NS(=O)(=O)c3ccccc3)cc1)C2 [GW627368X]
signaling pathways most inhibited (NAMECs): PI3K/Akt, TGF-β, Wnt and androgen pathways
release of EVs/exosomes from MSCs [1]: increased the release of EVs/exosomes
vesicles released per cell (NAMEC-R cells): ~5000 vesicles per cell
content of exosomal markers CD81 and GAPDH in NSC culture (neural stem cells (NSCs)): increased
expression level of NSC marker SOX2 vs non-treated NSCs (neural stem cells (NSCs)): much lower
